Test results from US7041662B2, “Substituted benzo [b] azepin-2-one compounds” (Grunenthal GmbH, priority 2002, dated 2006).

Tested on: phenylquinone-induced writhing reactions
Test: phenylquinone-induced writhing in mice
Format: in vivo
Conditions: male NMRI mice, phenylquinone i.p. 10 minutes after compound, writhing counted 5-20 minutes after phenylquinone
Method: The investigation into analgesic efficacy was performed by phenylquinone-induced writhing in mice (modified after: I. C. Hendershot, J. Forsaith, J. Pharmacol. Exp. There. 125, 237–240 (1959)). The corresponding literature description is hereby introduced as a reference and is deemed to be part of the disclosure.
Male NMRI mice weighing from 25 to 30 g were used for this purpose. Groups of 10 animals per substance dose received, 10 minutes after intravenous administration of the compounds tested, 0.3 ml/mouse of a 0.02% aqueous solution of phenylquinone (phenylbenzoquinone, Sigma, Deisenhofen; solution prepared with addition of 5% of ethanol and stored in a water bath at 45° C.) administered intraperitoneally. The animals were placed individually in observation cages. A push button counter was used to record the number of pain-induced stretching movements (writhing reactions=straightening of the torso with stretching of the rear extremities) for 5–20 minutes after phenylquinone administration. The control was provided by animals who received only physiological common salt solution.
The compounds were tested at the standard dosage of 10 mg/kg. Inhibition of the writhing reactions by a substance was calculated according to the following formula: […]
The in-depth investigation into analgesic efficacy was performed using phenylquinone-induced writhing in mice, as described above.

| Compound | % inhibition of writhing reactions 10 mg/kg i.v. [%] |
| --- | --- |
| COc1cccc(C2(O)CCC(OC(=O)CC3=CCC(=O)N(C)c4cc(Cl)ccc43)CC2CN(C)C)c1 (stereo not drawn) [Example 4, 2′-(8-chloro-1-methyl-2-oxo-2,3-dihydro-1H-benzo[b]azepin-5-yl) acetic acid [3″-(N,N-dimethylaminomethyl)-4″-hydroxy-4″-(m-methoxyphenyl)cyclohexyl]ester] | 39 |
| COc1cccc(C2(O)CCC(OC(=O)CC3=CCC(=O)Nc4cc(Cl)ccc43)CC2CN(C)C)c1 (stereo not drawn) [Example 5, 2′-(8-chloro-2-oxo-2,3-dihydro-1H-benzo[b]azepin-5-yl) acetic acid [3″-(N,N-dimethylaminomethyl)-4″-hydroxy-4″-(m-methoxyphenyl)cyclohexyl]ester] | 63 |
| COc1cccc(C2(O)CCC(NC(=O)CC3=CCC(=O)N(C)c4cc(Cl)ccc43)CC2CN(C)C)c1 (stereo not drawn) [Example 6, 2′-(8-chloro-1-methyl-2-oxo-2,3-dihydro-1H-benzo[b]azepin-5-yl)-N-[3″-(N,N-dimethylaminomethyl)-4″-hydroxy-4″-(m-methoxyphenyl)cyclohexyl]acetamide] | 25 |
